Laboratory results: publication PMC4045209, “The two common polymorphic forms of human NRH-quinone oxidoreductase 2 (NQO2) have different biochemical properties” (Febs Letters, 2014)
Like-named read-outs stand apart in the source and are kept apart here.

Target: T1, NRH-quinone oxidoreductase 2 (NQO2-F47) (Homo sapiens, UniProt P16083, L47F)
T1 sequence (P16083 1-231 L47F): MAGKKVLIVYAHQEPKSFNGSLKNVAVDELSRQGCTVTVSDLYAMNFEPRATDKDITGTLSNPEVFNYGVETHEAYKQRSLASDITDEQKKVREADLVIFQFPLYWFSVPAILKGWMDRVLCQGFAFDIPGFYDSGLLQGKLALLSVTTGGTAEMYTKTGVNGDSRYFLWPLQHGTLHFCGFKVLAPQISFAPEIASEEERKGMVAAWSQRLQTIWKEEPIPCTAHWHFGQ
Assay: thermal scanning fluorimetry KD,app (FAD fluorescence)
Assay type: binding

Structure (SMILES) | Kd (read-out: Kd) [mM] | Kd [mM]
O=c1oc2ccccc2c(O)c1Cc1c(O)c2ccccc2oc1=O [dicoumarol] | 0.0337 ± 0.0026 | –
NC(=O)c1cccnc1 [nicotinamide] | – | 14.4 ± 1.1
